# How the values were obtained:
# DENV2 NS2B/3 protease = biological target: T1, DENV2 NS2B/3 protease (Dengue virus type 2, UniProt P14340); assay: In vitro protease assay; type: biochemical; conditions: in words
# T1 construct: DENV2 NS2BH-(QR)-NS3pro enzyme3
# Procedure: Assays were performed in triplicate in a 96-well half area black plate
# (Greiner Bio-One, Monroe, NC, USA). The reaction mixture (100 μl) contained
# 200 mM Tris-HCl, pH 9.5, 30% glycerol, 0.1% CHAPS, 1% DMSO, 50 nM
# DENV2 NS2BH-(QR)-NS3pro enzyme3, 10 µM fluorogenic tetrapeptide
# substrate, Bz-Nle-Lys-Arg-Arg-AMC, and designated concentrations of
# compounds in DMSO (concentration of 1%). The compound-enzyme mixture
# was pre-incubated for 15 min at room temperature before addition of the
# substrate. The reaction was continued at 37 οC for 30 min. The release of AMC
# from the substrate was recorded every 1.5 min at 380 nm excitation and 460 nm
# emission in a SpectraMax Gemini EM spectrofluorometer (Molecular Devices,
# Sunnyvale, CA). DMSO alone (concentration of 1%) was used as the no-inhibitor
# control (100% protease activity) and the bovine pancreatic trypsin inhibitor
# protease, was used at 5 µM in DMSO concentration of 1% as a positive control
# (0% protease activity). Data were plotted and reported as percent inhibition of
# each compound to protease activity.
# The in vitro enzymatic protease assay. Compounds were prepared three
# concentrations and mixed with protein, added substrate (Bz)-Nle-Arg-arg-AMC
# and measured at 460 nm with an excitation at 380 nm.
# DENV2 (NGC) = assay: Antiviral efficacy (EC50) in virus infected LLC/MK2 cells, plaque assay; type: cell-based, Dengue virus
# Procedure: Compound at various concentrations were added to virus infected LLC/MK2 cells and viral titers were accessed by plaque titration of supernatants as previously described.
# LLC/MK2 cells were seeded at 5 × 10^4 cells into each well of 24-well plate and incubated overnight at 37 °C under 5% CO2. Cells were infected with DENV2 at the multiplicity of infection (M.O.I.) of 0.1, unless indicated otherwise, for 1 h with gentle rocking every 15 min. Cells were washed with phosphate buffer saline (PBS) and incubated with 1 ml of MEM medium supplemented with 1% FBS as previously described. The compounds were prepared in dimethylsulfoxide (DMSO) at the indicated concentrations before addition to viral infected cells. Supernatants were collected after 5 day incubation and analyzed by plaque titration[9].
# Compounds were prepared in DMSO at 8–12 different concentrations and added to virus infected cells as previously described. Supernatants were collected and the EC50 values were calculated from nonlinear regression analysis.
# DENV2 NGC = assay: Primary screening: compounds added to DENV2 infected LLC/MK2 cells, plaque titration of culture supernatants; type: cell-based, Dengue virus
# Procedure: In this study, we selected 8 flavonoid derivatives (Fig. 1) and tested their effect on DENV2 NGC in a LLC/MK2 cell-based system. Briefly, the compounds at final concentrations of 10 μM and 25 μM in DMSO were added to DENV2 infected LLC/MK2 cells and the effect on viral particle production was measured by plaque titration of the culture supernatants. […] We also tested cytotoxicity of FV13, FV14, and CH1 to verify the viral inhibition in LLC/MK2 cells (Table 2). The viabilities of FV13 treated cells were 81.00 ± 2.69% and 59.40 ± 2.42%, at 10, and 25 µM respectively, whereas the values for FV14 treated cells were 60.24 ± 3.31% and 60.86 ± 3.57%. We also examined Vero, THP-1, HepG2, and HEK-293 cell viabilities in the presence of selected compounds (Table 2).
# LLC/MK2 cells were seeded at 5 × 10^4 cells into each well of 24-well plate and incubated overnight at 37 °C under 5% CO2. Cells were infected with DENV2 at the multiplicity of infection (M.O.I.) of 0.1, unless indicated otherwise, for 1 h with gentle rocking every 15 min. Cells were washed with phosphate buffer saline (PBS) and incubated with 1 ml of MEM medium supplemented with 1% FBS as previously described. The compounds were prepared in dimethylsulfoxide (DMSO) at the indicated concentrations before addition to viral infected cells. Supernatants were collected after 5 day incubation and analyzed by plaque titration. In primary screening, DMSO-treated cells served as the untreated control. Compounds that inhibited virus production by ≥90% were selected for further characterization.
# [1] = Viability of DENV2/BHK-21 replicon cells; type: cell-based; conditions: hamster, 5 and 10 µM, read-out: viable replicon cells
# Procedure: Next, we studied FV13 inhibition in a DENV2 replicon replication system to investigate whether translation and replication could be implicated as drug targets. BHK-21/DENV2 replicon cells[28] were treated with 5 and 10 µM FV13 and incubated for 72 h before measuring replication efficiency by quantifying replicon RNA. Ribavirin, a known dengue virus replication inhibitor[29], was used as a positive control.
# Figure 6 Replicon inhibition study. (A) DENV2/BHK-21 replicon cells were treated with FV13 or ribavirin for 72 h. Percent inhibition was calculated from RT-qPCR of extracted RNA. Error bars represented standard error of means (SEM) from two independent experiments with triplicate samples. Asterisks indicated statistical significance in paired t-test as follows; *p-value < 0.05, **p-value < 0.01, ***p-value < 0.001 compared to 1% DMSO negative control. (B) Percent DENV2/BHK-21 replicon cell viability at 72 h under 5 and 10 µM FV13 treatment. Error bars represented standard error of means (SEM) from three independent experiments, in which each experiment was performed in triplicate.
# [2] = Dengue virus, DENV2, LLC-MK2, read-out: DENV2 inhibition (%, means ± SEM)
# T1 sequence (P14340 1398-1437): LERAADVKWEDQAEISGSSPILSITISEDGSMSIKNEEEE
# T1 sequence (P14340 1476-1653): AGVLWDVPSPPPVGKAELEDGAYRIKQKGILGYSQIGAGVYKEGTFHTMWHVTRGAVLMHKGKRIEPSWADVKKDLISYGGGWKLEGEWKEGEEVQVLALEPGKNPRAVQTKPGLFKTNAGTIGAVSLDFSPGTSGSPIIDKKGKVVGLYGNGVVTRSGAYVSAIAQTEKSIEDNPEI
smiles,measurement,setting,value
"O=c1cc(-c2ccccc2)oc2c(Br)c(O)c(Br)c(O)c12 [FV13, 6,8-dibromo-5,7-dihydroxyflavone]",targeting of DENV2 protease in the in vitro protease assay,DENV2 NS2B/3 protease,did not target DENV2 protease
same,S.I. Selectivity index (CC50/EC50),"DENV2 (NGC); DENV2 (NGC), CC50 in LLC/MK2",30.43
same,EC50,"DENV2 (NGC); Dengue virus, DENV2, LLC-MK2",1470 ± 860 nM
same,inhibition of virus production,"DENV2 NGC; 10 μM and 25 μM, summary of Table 1",> 99%
same,inhibition at 10 µM,DENV2 NGC; [2],99.45 ± 0.48%
same,inhibition at 25 µM,DENV2 NGC; [2],99.65 ± 0.41%
same,viability at 72 h,[1],> 99%
